Source: US20240287108A1, “nSMASE2 INHIBITOR PRODRUGS WITH ENHANCED ORAL AND BRAIN EXPOSURES” (The Johns Hopkins University, priority 2021, published 2024)

How the values were obtained:
[1] = in vitro stability in CES1−/− mouse brain homogenates; assay type: in vitro ADME; conditions: CES1−/− mouse brain homogenate, 10 μM, 37° C.
Description: (§1) All synthesized prodrugs were next screened for in vitro stability in carboxylesterase 1 knockout (CES1^−/−) mouse plasma, as well as CES1^−/− mouse brain and liver homogenates (Table 2-1). We have previously reported that CES1^−/− mouse model recapitulates human prodrug metabolism.
(§2) For the tissue homogenates, washed tissues were diluted 10-fold in 0.1 M potassium phosphate buffer and homogenized using a probe sonicator. To evaluate the stability of the intact prodrug over time, each of the crude homogenates and plasma were aliquoted to 1 mL and then spiked with a final assay concentration of 10 μM of each prodrug followed by incubation in an orbital shaker at 37° C. for 1 h (in triplicate). Sample from each incubation at predetermined time points (0 min, and 1 h) was quenched with three volumes of acetonitrile containing the internal standard (IS; losartan: 0.5 μm). Samples were vortex-mixed for 30 secs and centrifuged at 10,000×g for 10 min at 4° C. Disappearance of intact prodrugs from these samples were performed on a Dionex ultra-high-performance LC system coupled with Q Exactive Focus orbitrap mass spectrometer (Thermo Fisher Scientific Inc., Waltham MA). […] The mobile phase consisted of 0.1% formic acid in water and 0.1% formic acid in acetonitrile. Pumps were operated at a flow rate of 0.4 mL/min for 9 min using gradient elution. The mass spectrometer controlled by Xcalibur software 4.0.27.13 (Thermo Scientific) was operated with a heated electrospray ionization (HESI) ion source in positive ionization mode. Quantification of the prodrugs were performed in the full-scan mode (from m/z 50 to 1600) by comparing t=0 samples with t=60 min samples.

[2] = single time-point (2 h) oral pharmacokinetic screening in mice; assay type: in vivo, mouse; conditions: single time point PK, oral 10 mg/kg DPTIP equivalent
Description: All PK studies in mice were conducted according to protocols approved by the Animal Care and Use Committee at Johns Hopkins University. Male CD-1 mice between 25 and 30 g were obtained from Harlan and maintained on a 12 h light-dark cycle with ad libitum access to food and water. […] All of the formulations were freshly prepared prior to the dosing. The mice were sacrificed at specified time points (either 2 h or 0.25, 0.5, 1, 2, 4, 6, and 8 h) post drug administration. For the collection of plasma and brain tissue, animals were euthanized with CO2, and blood samples were collected in heparinized microtubes by cardiac puncture. Brains were dissected and immediately flash frozen (−80° C.) Blood samples were spun at 2000 g for 15 min, and plasma was removed and stored at −80° C. until LC-MS/MS analysis. Prior to extraction, frozen samples were thawed on ice.
Brain tissues were diluted 1:5 w/v with acetonitrile containing losartan (0.5 μm) and homogenized, followed by vortex-mixing and centrifugation at 10,000 g for 10 min at 4° C. […] Plasma concentrations (nmol/ml) as well as brain tissue concentrations (nmol/g) were determined and plots of mean plasma concentration versus time were constructed. Non-compartmental analysis modules in Phoenix WinNonlin version 7.0 (Certara USA, Inc., Princeton, NJ) were used to quantify exposures (AUC0-t).

[3] = in vitro stability in CES1−/− mouse liver homogenates; assay type: in vitro ADME; conditions: CES1−/− mouse liver homogenate, 10 μM, 37° C.
Description: as §1, §2

## CCC1CC(N2CCCCC2)CC(CC)N1C(=O)Oc1c(OC)cc(-c2nc(-c3ccccc3)c(-c3cccs3)[nH]2)cc1OC (stereo not drawn) [Compound P18, 2,6-Dimethoxy-4-(5-phenyl-4-(thiophen-2-yl)-1H-imidazol-2-yl)phenyl 2′,6′-diethyl-[1,4′-bipiperidine]-1′-carboxylate]
[1]
  Stability in mouse (% remaining at 1h) Mean + Std Error, Brain: 100 ± 1%
[2]
  improvement of brain and plasma levels of DPTIP and/or its brain penetration index compared with DPTIP: highest improvement
[3]
  Stability in mouse (% remaining at 1h) Mean + Std Error, Liver: 100 ± 3%
